This note sets out measurements from patent publication US20220401619A1, “A COLLAGEN SCAFFOLD” (ROYAL COLLEGE OF SURGEONS IN IRELAND, priority 2019, published 2022).

A short description of the data set: Antibiotic release profile from scaffolds over 60 days. The data set is classed as physicochemical. An excerpt:
As shown in FIG. 3(A), in the dual-layer scaffold structure incorporating crosslinked and directly incorporated antibiotic produced as described above, the porous scaffold structure necessary for efficient tissue regeneration was maintained. In addition, the porosity (>98%) and mean pore size, essential for optimal proliferation and differentiation of osteoblasts during bone regeneration, were not compromised after the loading of the drug into the collagen structure. Depending on the incorporation method, different release kinetics of the antibiotic from the materials were obtained. […] At day 10, approximately 90% of the teicoplanin was released when it was directly loaded into the slurry during the CHA scaffold fabrication.

For teicoplanin, the teicoplanin released result reads like this: (day 10, directly loaded into the slurry during CHA scaffold fabrication) “approximately 90%”; (day 60, chemically attached (crosslinked) to scaffold) “approximately 11%”.
